For five molecules, IC50 results are on record in patent US9290511B2, “Thieno-pyrimidines, useful as potassium channel inhibitors” (XENTION LIMITED, priority 2011, dated 2016).

Some results are limits rather than exact numbers.

For this assay, the target named is T1, Kir3.1/3.4 (Rattus norvegicus, UniProt P48548+P63251).
T1 construct: expressed in transfected cells
T1 sequence (P63251 1-501): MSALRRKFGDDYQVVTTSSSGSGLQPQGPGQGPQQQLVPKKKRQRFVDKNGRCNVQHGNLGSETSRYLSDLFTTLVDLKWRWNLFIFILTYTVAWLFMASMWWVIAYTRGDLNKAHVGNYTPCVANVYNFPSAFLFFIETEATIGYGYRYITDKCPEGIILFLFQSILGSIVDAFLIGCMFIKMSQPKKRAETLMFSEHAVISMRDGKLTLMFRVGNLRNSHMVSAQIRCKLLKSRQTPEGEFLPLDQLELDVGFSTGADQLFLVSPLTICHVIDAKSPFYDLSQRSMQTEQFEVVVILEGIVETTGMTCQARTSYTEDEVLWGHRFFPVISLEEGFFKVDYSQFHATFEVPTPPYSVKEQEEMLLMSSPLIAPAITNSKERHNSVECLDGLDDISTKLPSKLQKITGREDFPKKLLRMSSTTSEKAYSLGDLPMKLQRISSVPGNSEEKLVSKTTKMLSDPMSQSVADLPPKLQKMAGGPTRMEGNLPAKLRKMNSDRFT
T1 sequence (P48548 1-419): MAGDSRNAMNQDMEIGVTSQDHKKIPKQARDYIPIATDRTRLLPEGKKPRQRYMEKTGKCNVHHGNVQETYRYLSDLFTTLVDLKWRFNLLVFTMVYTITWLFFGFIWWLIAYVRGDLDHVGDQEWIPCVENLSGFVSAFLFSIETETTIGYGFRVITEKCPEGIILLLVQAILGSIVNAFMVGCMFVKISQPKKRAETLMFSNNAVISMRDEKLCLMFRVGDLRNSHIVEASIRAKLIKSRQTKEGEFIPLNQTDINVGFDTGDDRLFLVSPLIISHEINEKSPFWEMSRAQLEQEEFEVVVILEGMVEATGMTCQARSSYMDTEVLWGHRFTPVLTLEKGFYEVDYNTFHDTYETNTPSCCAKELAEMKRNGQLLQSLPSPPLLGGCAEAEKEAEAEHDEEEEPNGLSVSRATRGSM
Nature of the assay: Kir3.1/3.4 Q-patch Method (automated patch clamp, Sophion Q-patch). It counts as cell-based. The settings on record: HEK293 cells stably-expressing Kir3.1/3.4; current at -120 mV; QPatch-16 or QPatch-48.
As usually defined, the IC50 is the midpoint of a concentration-inhibition curve. Low values mean greater potency in that assay, high ones weaker potency in that assay. In turn, `COc1ccccc1-c1csc2nc(N3CCOC(C(N)=O)C3)nc(N3C4CCC3COC4)c12` (centres unmarked) [Example 418, 4-[5-(2-methoxyphenyl)-4-(3-oxa-8-azabicyclo[3.2.1]octan-8-yl)thieno[2,3-d]pyrimidin-2-yl]morpholine-2-carboxamide] yielded an IC50 of 500 to 3000 nM.

With `NC(=O)C1CCN(c2nc(N3C4CCC3COC4)c3c(-c4ccccc4Cl)csc3n2)C1` (centres unmarked) [Example 422, 1-[5-(2-chlorophenyl)-4-(3-oxa-8-azabicyclo[3.2.1]octan-8-yl)thieno[2,3-d]pyrimidin-2-yl]pyrrolidine-3-carboxamide], the IC50 fell in the range of 500 to 3000 nM. In turn, `NC(=O)C1CCN(c2nc(N3C4CCC3COC4)nc3scc(-c4ccccc4Cl)c23)C1` (centres unmarked) [Example 415, 1-[5-(2-chlorophenyl)-2-(3-oxa-8-azabicyclo[3.2.1]octan-8-yl)thieno[2,3-d]pyrimidin-4-yl]pyrrolidine-3-carboxamide] showed an IC50 of 500 to 3000 nM. Molecule `COc1ccccc1-c1csc2nc(N3CCC(C(N)=O)C3)nc(N3C4CCC3COC4)c12` (centres unmarked) [Example 401, 1-[5-(2-methoxyphenyl)-4-(3-oxa-8-azabicyclo[3.2.1]octan-8-yl)thieno[2,3-d]pyrimidin-2-yl]pyrrolidine-3-carboxamide] yielded a concentration for half-maximal inhibition (IC50) of 500 to 3000 nM. Take `COc1ncccc1-c1csc2ncnc(N3C4CCC3CC(CNC3CCC3)C4)c12` (centres unmarked) [Example 427, N-[[8-[5-(2-methoxy-3-pyridyl)thieno[2,3-d]pyrimidin-4-yl]-8-azabicyclo[3.2.1]octan-3-yl]methyl]cyclobutanamine]: the IC50 is < 500 nM.
